Data: patent US7176313B2, “Anti acid-fast bacterial agent containing pyridonecarboxylic acids as active ingredient” (Daiichi Pharmaceutical Co., Ltd., priority 2000, dated 2007)
In brackets after ≈: the same amount, converted by molar mass.

Tested on: RFP-resistant M. tuberculosis
Assay: microbe, parasite or virus in culture
Type: cell-based, Mycobacterium tuberculosis
[1] = Mycobacterium tuberculosis, RFP-resistant M. tuberculosis No. 44, Table 8 (series 2)
[2] = Mycobacterium tuberculosis, RFP-resistant M. tuberculosis No. 45, Table 8 (series 2)
[3] = Mycobacterium tuberculosis, RFP-resistant M. tuberculosis No. 50, Table 8 (series 2)
[4] = Mycobacterium tuberculosis, RFP-resistant M. tuberculosis No. 51, Table 8 (series 2)
[5] = Mycobacterium tuberculosis, RFP-resistant M. tuberculosis No. 56, Table 8 (series 2)
[6] = Mycobacterium tuberculosis, RFP-resistant M. tuberculosis No. 71, Table 8 (series 2)
[7] = Mycobacterium tuberculosis, RFP-resistant M. tuberculosis No. 97, Table 8 (series 2)
[8] = RFP-resistant M. tuberculosis No. 44, Table 8 (series 2)
[9] = RFP-resistant M. tuberculosis No. 45, Table 8 (series 2)
[10] = RFP-resistant M. tuberculosis No. 50, Table 8 (series 2)
[11] = RFP-resistant M. tuberculosis No. 51, Table 8 (series 2)
[12] = RFP-resistant M. tuberculosis No. 56, Table 8 (series 2)
[13] = RFP-resistant M. tuberculosis No. 71, Table 8 (series 2)
[14] = RFP-resistant M. tuberculosis No. 97, Table 8 (series 2)
[15] = Mycobacterium tuberculosis, RFP-resistant M. tuberculosis No. 44, Table 7
[16] = Mycobacterium tuberculosis, RFP-resistant M. tuberculosis No. 45, Table 7
[17] = Mycobacterium tuberculosis, RFP-resistant M. tuberculosis No. 47, Table 7
[18] = Mycobacterium tuberculosis, RFP-resistant M. tuberculosis No. 50, Table 7
[19] = Mycobacterium tuberculosis, RFP-resistant M. tuberculosis No. 56, Table 7
[20] = Mycobacterium tuberculosis, RFP-resistant M. tuberculosis No. 71, Table 7
[21] = Mycobacterium tuberculosis, RFP-resistant M. tuberculosis No. 97, Table 7
[22] = RFP-resistant M. tuberculosis No. 44, Table 7
[23] = RFP-resistant M. tuberculosis No. 50, Table 7

Row | SMILES | MIC [1] | MIC [2] | MIC [3] | MIC [4] | MIC [5] | MIC [6] | MIC [7] | also measured
1 | COc1c(N2CCNC3(CC3)C2)c(F)cc2c(=O)c(C(=O)O)cn([C@@H]3C[C@@H]3F)c12 [Compd. 22, 7-{4,7-Diazaspiro[2.5]octan-7-yl}-6-fluoro-1-[(1R,2S)-2-fluorocyclopropyl]-1,4-dihydro-8-methoxy-4-oxoquinoline-3-carboxylic acid] | 0.78 µg/mL (≈ 1.92 µM) | 25 µg/mL (≈ 61.7 µM) | 0.78 µg/mL (≈ 1.92 µM) | 1.56 µg/mL (≈ 3.85 µM) | 100 µg/mL (≈ 247 µM) | 3.13 µg/mL (≈ 7.72 µM) | 6.25 µg/mL (≈ 15.4 µM) | –
2 | C[C@H]1COc2c(N3CCN[C@@H](c4ccccc4)C3)c(F)cc3c(=O)c(C(=O)O)cn1c23 [Compd. 27, 9-Fluoro-2,3-dihydro-3-(S)-methyl-7-oxo-10-[3-(S)-phenyl-1-piperazinyl]-7H-pyrido[1.2.3-de][1,4]benzoxazine-6-carboxylic acid] | – | – | – | – | – | – | – | MIC [8]: 0.1 µg/mL (≈ 0.236 µM); MIC [9]: 1.56 µg/mL (≈ 3.68 µM); MIC [10]: 0.1 µg/mL (≈ 0.236 µM); MIC [11]: 0.2 µg/mL (≈ 0.472 µM); MIC [12]: 6.25 µg/mL (≈ 14.8 µM); MIC [13]: 0.39 µg/mL (≈ 0.921 µM); MIC [14]: 0.78 µg/mL (≈ 1.84 µM)
3 | COc1c(N2CCNC(CF)C2)c(F)cc2c(=O)c(C(=O)O)cn([C@@H]3C[C@@H]3F)c12 (stereo partly drawn) [Compd. 19, 6-Fluoro-1-[(1R,2S)-2-fluorocyclopropyl]-7-(3-fluoromethylpiperazin-1-yl)-1,4-dihydro-8-methoxy-4-oxoquinoline-3-carboxylic acid] | 0.39 µg/mL (≈ 0.948 µM) | 3.13 µg/mL (≈ 7.61 µM) | 0.2 µg/mL (≈ 0.486 µM) | 0.78 µg/mL (≈ 1.9 µM) | 50 µg/mL (≈ 122 µM) | 1.56 µg/mL (≈ 3.79 µM) | 1.56 µg/mL (≈ 3.79 µM) | –
4 | COc1c(N2CCN3CCC2C3)c(F)cc2c(=O)c(C(=O)O)cn([C@@H]3C[C@@H]3F)c12 (stereo partly drawn) [Compd. 28, 7-{1,4-Diazabicyclo[3.2.1]octan-4-yl}-6-fluoro-1-[(1R,2S)-2-fluorocyclopropyl]-1,4-dihydro-8-methoxy-4-oxoquinoline-3-carboxylic acid] | 0.2 µg/mL (≈ 0.493 µM) | 3.13 µg/mL (≈ 7.72 µM) | 0.2 µg/mL (≈ 0.493 µM) | 0.78 µg/mL (≈ 1.92 µM) | 12.5 µg/mL (≈ 30.8 µM) | 1.56 µg/mL (≈ 3.85 µM) | 1.56 µg/mL (≈ 3.85 µM) | –
5 | COCC1CN(c2c(F)cc3c(=O)c(C(=O)O)cn([C@@H]4C[C@@H]4F)c3c2OC)CCN1 (stereo partly drawn) [Compd. 21, 6-Fluoro-1-[(1R,2S)-2-fluorocyclopropyl]-1,4-dihydro-8-methoxy-7-(3-methoxymethylpiperazin-1-yl)-4-oxoquinoline-3-carboxylic acid] | 0.39 µg/mL (≈ 0.921 µM) | 3.13 µg/mL (≈ 7.39 µM) | 0.39 µg/mL (≈ 0.921 µM) | 0.78 µg/mL (≈ 1.84 µM) | 25 µg/mL (≈ 59 µM) | 1.56 µg/mL (≈ 3.68 µM) | 1.56 µg/mL (≈ 3.68 µM) | –
6 | COc1c(N2CCNC(CF)(CF)C2)c(F)cc2c(=O)c(C(=O)O)cn([C@@H]3C[C@@H]3F)c12 [Compd. 20, 6-Fluoro-1-[(1R,2S)-2-fluorocyclopropyl]-7-(3,3′-difluoromethylpiperazin-1-yl)-1,4-dihydro-8-methoxy-4-oxoquinoline-3-carboxylic acid] | 0.39 µg/mL (≈ 0.88 µM) | 6.25 µg/mL (≈ 14.1 µM) | 0.39 µg/mL (≈ 0.88 µM) | 0.78 µg/mL (≈ 1.76 µM) | 50 µg/mL (≈ 113 µM) | 1.56 µg/mL (≈ 3.52 µM) | 1.56 µg/mL (≈ 3.52 µM) | –
7 | CO[C@H]1/C=C/O[C@@]2(C)Oc3c(C)c(O)c4c(O)c(c(/C=N/N5CCN(C)CC5)c(O)c4c3C2=O)NC(=O)/C(C)=C\C=C\[C@H](C)[C@H](O)[C@@H](C)[C@@H](O)[C@@H](C)[C@H](OC(C)=O)[C@@H]1C [RFP, rifampicin, reference compound] | – | – | – | – | – | – | – | MIC [15]: > 100 µg/mL; MIC [16]: > 100 µg/mL; MIC [17]: > 100 µg/mL; MIC [18]: > 100 µg/mL; MIC (Mycobacterium tuberculosis, RFP-resistant M. tuberculosis No. 51, Table 7): > 100 µg/mL; MIC [19]: > 100 µg/mL; MIC [20]: > 100 µg/mL; MIC [21]: > 100 µg/mL
8 | COc1c(N2CCN(C)CC2)c(F)cc2c(=O)c(C(=O)O)cn([C@@H]3C[C@@H]3F)c12 [Compd. 15, 6-Fluoro-1-[2-(S)-fluoro-1-(R)-cyclopropyl]-1,4-dihydro-8-methoxy-7-(4-methylpiperazin-1-yl)-4-oxoquinoline-3-carboxylic acid] | – | – | – | – | – | – | – | MIC [15]: 0.2 µg/mL (≈ 0.508 µM); MIC [16]: 1.56 µg/mL (≈ 3.97 µM); MIC [17]: 0.39 µg/mL (≈ 0.991 µM); MIC [18]: 0.2 µg/mL (≈ 0.508 µM); MIC [19]: 6.25 µg/mL (≈ 15.9 µM); MIC [20]: 0.39 µg/mL (≈ 0.991 µM); MIC [21]: 1.56 µg/mL (≈ 3.97 µM)
9 | COc1c(N2CCNC(C3CC3)C2)c(F)cc2c(=O)c(C(=O)O)cn([C@@H]3C[C@@H]3F)c12 (stereo partly drawn) [Compd. 24, 7-(3-Cyclopropylpiperazin-1-yl)-6-fluoro-1-[(1R,2S)-2-fluorocyclopropyl]-1,4-dihydro-8-methoxy-4-oxoquinoline-3-carboxylic acid] | 0.78 µg/mL (≈ 1.86 µM) | 12.5 µg/mL (≈ 29.8 µM) | 0.39 µg/mL (≈ 0.93 µM) | 1.56 µg/mL (≈ 3.72 µM) | 50 µg/mL (≈ 119 µM) | 3.13 µg/mL (≈ 7.46 µM) | 3.13 µg/mL (≈ 7.46 µM) | –
10 | COc1c(N2C[C@@H](C)N[C@@H](C)C2)c(F)cc2c(=O)c(C(=O)O)cn([C@@H]3C[C@@H]3F)c12 [Compd. 16, 7-(3,5-cis-Dimethylpiperazin-1-yl)-6-fluoro-1-[2-(S)-fluoro-1-(R)-cyclopropyl]-1,4-dihydro-8-methoxy-4-oxoquinoline-3-carboxylic acid] | 0.25 µg/mL (≈ 0.614 µM) | 4 µg/mL (≈ 9.82 µM) | 0.12 µg/mL (≈ 0.295 µM) | 0.5 µg/mL (≈ 1.23 µM) | 64 µg/mL (≈ 157 µM) | 0.5 µg/mL (≈ 1.23 µM) | 1 µg/mL (≈ 2.45 µM) | MIC (Mycobacterium tuberculosis, RFP-resistant M. tuberculosis No. 47, Table 8 (series 2)): 0.5 µg/mL (≈ 1.23 µM)
11 | COc1c(C2CNC3(CCC3)CN2)c(F)cc2c(=O)c(C(=O)O)cn([C@@H]3C[C@@H]3F)c12 (stereo partly drawn) [Compd. 23, 7-{5,8-Diazaspiro[3.5]nonan-7-yl}-6-fluoro-1-[(1R,2S)-2-fluorocyclopropyl]-1,4-dihydro-8-methoxy-4-oxoquinoline-3-carboxylic acid] | 1.56 µg/mL (≈ 3.72 µM) | 25 µg/mL (≈ 59.6 µM) | 1.56 µg/mL (≈ 3.72 µM) | 6.25 µg/mL (≈ 14.9 µM) | 100 µg/mL (≈ 238 µM) | 12.5 µg/mL (≈ 29.8 µM) | 12.5 µg/mL (≈ 29.8 µM) | –
12 | CC1COc2c(N3CCN(C)CC3)c(F)cc3c(=O)c(C(=O)O)cn1c23 (stereo not drawn) [OFLX, OFLOXAIN, reference compound] | – | – | – | – | – | – | – | MIC [22]: 1.56 µg/mL (≈ 4.32 µM); MIC [8]: 2.0 µg/mL (≈ 5.53 µM); MIC (RFP-resistant M. tuberculosis No. 45, Table 7): 25 µg/mL (≈ 69.2 µM); MIC [9]: 3.20 µg/mL (≈ 8.86 µM); MIC (RFP-resistant M. tuberculosis No. 47, Table 8 (series 2)): 8.0 µg/mL (≈ 22.1 µM); MIC [23]: 0.78 µg/mL (≈ 2.16 µM); MIC [10]: 1.0 µg/mL (≈ 2.77 µM); MIC [11]: 4.0 µg/mL (≈ 11.1 µM); MIC [12]: 16 µg/mL (≈ 44.3 µM); MIC [13]: 4.0 µg/mL (≈ 11.1 µM); MIC [14]: 16 µg/mL (≈ 44.3 µM)
13 | COc1c(N2CCN[C@@H](c3ccccc3)C2)c(F)cc2c(=O)c(C(=O)O)cn([C@@H]3C[C@@H]3F)c12.Cl [Compd. 26] | – | – | – | – | – | – | – | MIC [8]: 0.1 µg/mL; MIC [9]: 1.56 µg/mL; MIC [10]: 0.1 µg/mL; MIC [11]: 0.2 µg/mL; MIC [12]: 12.5 µg/mL; MIC [13]: 0.78 µg/mL; MIC [14]: 0.78 µg/mL
14 | C[C@H]1COc2c(N3CC(N)C4(CC4)C3)c(F)cc3c(=O)c(C(=O)O)cn1c23 (stereo partly drawn) [Compd. 14] | – | – | – | – | – | – | – | MIC [22]: 0.78 µg/mL (≈ 2.09 µM); MIC [23]: 0.39 µg/mL (≈ 1.04 µM)
